Experiments:
Experiment in all cases: relative viability (nuclei count vs DMSO), 5 days (fraction); higher = more cells survive
[1] = system: EBC-1
Method in brief: (§1)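 Values are medians from duplicate plates. Each reflects relative viability, defined as the nuclei count of treated wells over that of vehicle wells. Lung cancer cell lines in 1536-well plates were pin-tool dosed one day after seeding with one drug alone or with a fixed anchor-drug dose plus five library-drug doses (not always all listed) in √10 steps, then fixed, stained and imaged at 4× after 5 days.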

[2] = system: UMC-11
Method in brief: as §1

[3] = system: NCI-H1299
Method in brief: as §1

[4] = system: IA-LM
Method in brief: as §1

[5] = system: Calu-6
Method in brief: as §1

[6] = system: NCI-H1703
Method in brief: as §1

[7] = system: A549
Method in brief: as §1

SMILES | relative viability ([1]; first compound 0.04 µM) | relative viability ([1]; first compound 0.1265 µM) | relative viability ([1]; first compound 0.4 µM) | relative viability ([1]; first compound 1.265 µM) | relative viability ([1]; first compound 4 µM) | relative viability ([2]; first compound 0.04 µM) | relative viability ([2]; first compound 0.1265 µM) | relative viability ([2]; first compound 0.4 µM) | relative viability ([2]; first compound 1.265 µM) | relative viability ([2]; first compound 4 µM) | relative viability ([3]; first compound 0.04 µM) | relative viability ([3]; first compound 0.1265 µM) | relative viability ([3]; first compound 0.4 µM) | relative viability ([3]; first compound 1.265 µM) | relative viability ([3]; first compound 4 µM) | relative viability ([4]; first compound 0.04 µM) | relative viability ([4]; first compound 0.1265 µM) | relative viability ([4]; first compound 0.4 µM) | relative viability ([4]; first compound 1.265 µM) | relative viability ([4]; first compound 4 µM) | relative viability ([5]; first compound 0.04 µM) | relative viability ([5]; first compound 0.1265 µM) | relative viability ([5]; first compound 0.4 µM) | relative viability ([5]; first compound 1.265 µM) | relative viability ([5]; first compound 4 µM) | relative viability ([6]; first compound 0.04 µM) | relative viability ([6]; first compound 0.4 µM) | relative viability ([6]; first compound 1.265 µM) | relative viability ([6]; first compound 4 µM) | relative viability ([7]; first compound 0.04 µM) | relative viability ([7]; first compound 0.1265 µM) | relative viability ([7]; first compound 0.4 µM) | relative viability ([7]; first compound 1.265 µM) | relative viability ([7]; first compound 4 µM) | relative viability ([6]; first compound 0.1265 µM)
Clc1ccc(Nc2nnc(Cc3ccncc3)c3ccccc23)cc1 [Vatalanib] + CC1(C)CCC(c2ccc(Cl)cc2)=C(CN2CCN(c3ccc(C(=O)NS(=O)(=O)c4ccc(N[C@H](CCN5CCOCC5)CSc5ccccc5)c(S(=O)(=O)C(F)(F)F)c4)cc3)CC2)C1 [Navitoclax] (partner 0.5 µM) | 0.382 | 0.396 | 0.46 | 0.368 | 0.328 | 0.274 | 0.367 | 0.303 | 0.29 | 0.322 | 1.04 | 1.05 | 1.06 | 1.04 | 1.06 | 0.869 | 0.701 | 0.686 | 0.746 | 0.737 | 0.919 | 0.756 | 0.913 | 0.788 | 0.757 | 0.994 | 1.71 | 0.643 | 0.301 | 1.21 | 1.33 | 1.31 | 1.16 | 1.06 | –
Clc1ccc(Nc2nnc(Cc3ccncc3)c3ccccc23)cc1 [Vatalanib] + CS(=O)(=O)CCNCc1ccc(-c2ccc3ncnc(Nc4ccc(OCc5cccc(F)c5)c(Cl)c4)c3c2)o1 [Lapatinib] (partner 2 µM) | 0.165 | 0.204 | 0.22 | 0.232 | 0.202 | 0.924 | 0.941 | 0.976 | 0.975 | 1.13 | 0.96 | 0.961 | 0.931 | 0.939 | 0.969 | 0.869 | 0.816 | 0.885 | 0.674 | 0.674 | 1.14 | 1.02 | 1.09 | 1.05 | 1.07 | 1.28 | 1.4 | 0.611 | 0.435 | 0.991 | 0.918 | 1.05 | 1 | 1.01 | 1.05
Clc1ccc(Nc2nnc(Cc3ccncc3)c3ccccc23)cc1 [Vatalanib] + CS(=O)(=O)N1CCN(Cc2cc3nc(-c4cccc5[nH]ncc45)nc(N4CCOCC4)c3s2)CC1 [Pictilisib] (partner 1 µM) | 0.346 | 0.393 | 0.45 | 0.276 | 0.411 | 0.814 | 0.746 | 0.875 | 0.79 | 0.794 | 0.835 | 0.703 | 0.967 | 0.66 | 0.857 | 0.368 | 0.354 | 0.319 | 0.337 | 0.36 | 0.891 | 0.907 | 0.986 | 0.883 | 0.835 | 0.229 | 0.242 | 0.209 | 0.227 | 0.495 | 0.506 | 0.502 | 0.52 | 0.505 | 0.206
Clc1ccc(Nc2nnc(Cc3ccncc3)c3ccccc23)cc1 [Vatalanib] + C[C@@H](Oc1cc(-c2cnn(C3CCNCC3)c2)cnc1N)c1c(Cl)ccc(F)c1Cl [Crizotinib] (partner 1 µM) | 0.218 | 0.178 | 0.176 | 0.191 | 0.21 | 0.616 | 0.585 | 0.719 | 0.586 | 0.629 | 0.956 | 0.96 | 0.957 | 0.964 | 0.965 | 0.649 | 0.875 | 0.724 | 0.743 | 0.721 | 0.756 | 0.662 | 0.779 | 0.779 | 0.643 | 0.669 | 0.866 | 0.524 | 0.303 | 0.857 | 0.843 | 0.907 | 0.597 | 0.713 | 0.77
Clc1ccc(Nc2nnc(Cc3ccncc3)c3ccccc23)cc1 [Vatalanib] + C[C@]1(O)C[C@@H](c2nc(-c3ccc4ccc(-c5ccccc5)nc4c3)c3c(N)nccn32)C1 [Linsitinib] (partner 1 µM) | 1.14 | 0.777 | 0.994 | 0.812 | 0.808 | 1.03 | 0.808 | 1.01 | 1.04 | 0.987 | 1.05 | 0.955 | 0.948 | 0.961 | 0.967 | 0.763 | 0.59 | 0.69 | 0.55 | 0.582 | – | 0.926 | 1.02 | 0.912 | 1.01 | 0.804 | 1.21 | 0.386 | 0.211 | 0.51 | 0.573 | 0.703 | 0.656 | 0.592 | –
Clc1ccc(Nc2nnc(Cc3ccncc3)c3ccccc23)cc1 [Vatalanib] + Cc1nc(NC(=O)N2CCC[C@H]2C(N)=O)sc1-c1ccnc(C(C)(C)C(F)(F)F)c1 [Alpelisib] (partner 2 µM) | 0.842 | 0.698 | 0.82 | 0.856 | 0.852 | 0.913 | 0.932 | 0.816 | 0.979 | 1.07 | 1.02 | 1.08 | 1.05 | 1.02 | 1.04 | 0.747 | 0.754 | 0.715 | 0.797 | 0.918 | 1.09 | 0.95 | 1.08 | 0.958 | 0.938 | 0.327 | 0.395 | 0.235 | 0.212 | 0.795 | 0.758 | 0.922 | 0.694 | 0.707 | –

Source: the supplement of paper PMC10307832
